The record followed here is ChEMBL document CHEMBL1240377, “Comparison of anidulafungin MICs determined by the clinical and laboratory standards institute broth microdilution method (M27-A3 document) and Etest for Candida species isolates” (2010).

The structures appear in SMILES notation. In brackets after ≈: the same amount, converted by molar mass. *1 amine or outer side, *2 acyl side, *3 side chain or, on linkers, in order; H or OH if unused. Where a SMILES comes first, the peptide text is derived from it. Bridges are numbered along the chain shown (N, C = ends). [ ]: non-standard residue; d: D form. The star is where a group is joined. hTyr(3S-OH,4S-OH,3'-OSO3H) = N[C@H](C(=O)O)[C@H](O)[C@@H](O)c1ccc(O)c(OS(=O)(=O)O)c1; pTerphenylCO(4''-OnC5H11) = CCCCCOc1ccc(-c2ccc(-c3ccc(C(=O)*)cc3)cc2)cc1; Orn(4R-OH,5R-OH) = O=C([C@H](C[C@@H](O)[C@@H](O)N[*:3])N[*:1])[*:2]; hTyr(3S-OH,4S-OH) = N[C@H](C(=O)O)[C@H](O)[C@@H](O)c1ccc(O)cc1; Pro(3S-OH,4S-Me) = C[C@H]1CN[C@H](C(=O)O)[C@H]1O; X1 = CCCCCOc1ccc(-c2cc(-c3ccc(C(=O)*)cc3)no2)cc1; Gln(3R-OH) = NC(=O)C[C@@H](O)[C@H](N)C(=O)O; Hyp = O=C(O)[C@@H]1C[C@@H](O)CN1

Format in all cases: functional
Assay [1] has as its system Candida albicans. Put plainly: Antimicrobial activity against caspofungin-resistant Candida albicans T26 by Etest.
Assay [2] relates to Candida albicans. Put plainly: Antimicrobial activity against Candida albicans after 24 hrs by Etest.
The test system of assay [3] is Candida albicans. Nature of the assay: Antimicrobial activity against caspofungin-resistant Candida albicans NR2 expressing heterozygous […] mutant gene by CLSI M27-A3 broth microdilution method. (In general: Broth dilution looks for growth in wells or tubes with falling amounts of substance.)
Assay [4] concerns Clavispora lusitaniae. Nature of the assay: Antimicrobial activity against Clavispora lusitaniae ATCC 42720 after 24 hrs by Etest. The following applies: ATCC 42720, 24 h.
Assay [5] relates to Pichia kudriavzevii. Nature of the assay: Antimicrobial activity against Issatchenkia orientalis after 24 hrs by CLSI M27-A3 broth microdilution method.
Assay [6] concerns Nakaseomyces glabratus. Put plainly: Antimicrobial activity against Candida glabrata after 24 hrs by Etest.
Assay [7] concerns Candida albicans. Put plainly: Antimicrobial activity against caspofungin-resistant Candida albicans CAI4R1 expressing heterozygous […] mutant gene by CLSI M27-A3 broth microdilution method.
Assay [8] has as its system Candida albicans. Put plainly: Antimicrobial activity against caspofungin-resistant Candida albicans T26 by CLSI M27-A3 broth microdilution method.
In assay [9] the test system is Candida albicans. Nature of the assay: Antimicrobial activity against caspofungin-resistant Candida albicans NR3 expressing homozygous […] mutant gene by CLSI M27-A3 broth microdilution method.
In assay [10] the test system is Candida albicans. Nature of the assay: Antimicrobial activity against caspofungin-resistant Candida albicans T25 by Etest.
In assay [11] the test system is Candida albicans. Nature of the assay: Antimicrobial activity against caspofungin-resistant Candida albicans NR4 expressing heterozygous […] mutant gene by CLSI M27-A3 broth microdilution method.
Assay [12] concerns Candida albicans. Put plainly: Antimicrobial activity against caspofungin-resistant Candida albicans NR2 expressing heterozygous […] mutant gene by Etest.
Assay [13] relates to Candida tropicalis. Put plainly: Antimicrobial activity against Candida tropicalis after 24 hrs by Etest.
For assay [14], the system named is Candida albicans. Put plainly: Antimicrobial activity against caspofungin-resistant Candida albicans T32 by Etest.
Assay [15] deals with Pichia kudriavzevii. Put plainly: Antimicrobial activity against Issatchenkia orientalis after 24 hrs by Etest.
For assay [16], the system named is Clavispora lusitaniae. Put plainly: Antimicrobial activity against Clavispora lusitaniae ATCC 42720 after 24 hrs by CLSI M27-A3 broth microdilution method. The settings on record: ATCC 42720, 24 h.
The subject of assay [17] is Pichia kudriavzevii. Nature of the assay: Antimicrobial activity against caspofungin-susceptible Issatchenkia orientalis CY-118 CLSI by M27-A3 broth microdilution method.
Assay [18] has as its system Candida parapsilosis. Put plainly: Antimicrobial activity against Candida parapsilosis after 24 hrs by Etest. The settings on record: Lodderomyces parapsilosis.
In assay [19] the test system is Candida albicans. Nature of the assay: Antimicrobial activity against caspofungin-resistant Candida albicans CAI4 by Etest.
The test system of assay [20] is Candida albicans. Put plainly: Antimicrobial activity against caspofungin-resistant Candida albicans CAI4 by CLSI M27-A3 broth microdilution method.
Assay [21] concerns Candida tropicalis. Nature of the assay: Antimicrobial activity against Candida tropicalis after 24 hrs by CLSI M27-A3 broth microdilution method.
Assay [22] concerns Nakaseomyces glabratus. Put plainly: Antimicrobial activity against Candida glabrata after 24 hrs by CLSI M27-A3 broth microdilution method.
In assay [23] the test system is Candida albicans. Put plainly: Antimicrobial activity against caspofungin-resistant Candida albicans T25 by CLSI M27-A3 broth microdilution method.
Assay [24] concerns Pichia kudriavzevii. Nature of the assay: Antimicrobial activity against caspofungin-susceptible Candida krusei CY-118 by Etest.
Assay [25] deals with Candida albicans. Nature of the assay: Antimicrobial activity against caspofungin-resistant Candida albicans NR4 expressing heterozygous […] mutant gene by Etest.
The test system of assay [26] is Candida albicans. Put plainly: Antimicrobial activity against caspofungin-resistant Candida albicans T32 by CLSI M27-A3 broth microdilution method.
Assay [27] relates to Candida parapsilosis. Nature of the assay: Antimicrobial activity against Candida parapsilosis after 24 hrs by CLSI M27-A3 broth microdilution method. The settings on record: Lodderomyces parapsilosis.
The test system of assay [28] is Meyerozyma guilliermondii. Nature of the assay: Antimicrobial activity against Pichia guilliermondii ATCC 6260 after 24 hrs by CLSI M27-A3 broth microdilution method. The following applies: ATCC 6260, 24 h.
The subject of assay [29] is Debaryomyces hansenii. Nature of the assay: Antimicrobial activity against Candida famata after 24 hrs by Etest.
Assay [30] relates to Candida albicans. Nature of the assay: Antimicrobial activity against caspofungin-resistant Candida albicans CAI4R1 expressing heterozygous […] mutant gene by Etest.
For assay [31], the system named is Candida albicans. Nature of the assay: Antimicrobial activity against caspofungin-resistant Candida albicans NR3 expressing homozygous […] mutant gene by Etest.
For assay [32], the system named is Candida albicans. Put plainly: Antimicrobial activity against Candida albicans after 24 hrs CLSI M27-A3 broth microdilution method.
Assay [33] concerns Debaryomyces hansenii. Nature of the assay: Antimicrobial activity against Candida famata after 24 hrs by CLSI M27-A3 broth microdilution method.
Assay [34] has as its system Meyerozyma guilliermondii. Nature of the assay: Antimicrobial activity against Pichia guilliermondii ATCC 6260 after 24 hrs by Etest. The following applies: ATCC 6260, 24 h.

On to `CCCCCOc1ccc(-c2ccc(-c3ccc(C(=O)N[C@H]4C[C@@H](O)[C@@H](O)NC(=O)[C@@H]5[C@@H](O)[C@@H](C)CN5C(=O)[C@H]([C@@H](C)O)NC(=O)[C@H]([C@H](O)[C@@H](O)c5ccc(O)cc5)NC(=O)[C@@H]5C[C@@H](O)CN5C(=O)[C@H]([C@@H](C)O)NC4=O)cc3)cc2)cc1` [ANIDULAFUNGIN] ({pTerphenylCO(4''-OnC5H11)}-[Orn(4R-OH,5R-OH)]T[Hyp][hTyr(3S-OH,4S-OH)]T[Pro(3S-OH,4S-Me)]; lactam 1-C), for which the minimal inhibitory concentration (MIC) in the assay on Candida albicans [1] was 0.5 µg/mL (≈ 0.438 µM); against Candida albicans [3] it was 0.12 µg/mL (≈ 0.105 µM); in the assay with Clavispora lusitaniae [4] it was 0.06 µg/mL (≈ 0.0526 µM); with Candida albicans [7], 0.5 µg/mL (≈ 0.438 µM); in the assay on Candida albicans [8], 1 µg/mL (≈ 0.877 µM); in the assay on Candida albicans [9], 1 µg/mL (≈ 0.877 µM). In addition, the minimal inhibitory concentration (MIC) with Candida albicans [10] is 2 µg/mL (≈ 1.75 µM); in the assay on Candida albicans [11] it was 0.25 µg/mL (≈ 0.219 µM); in the assay on Candida albicans [12], 1 µg/mL (≈ 0.877 µM); in the assay on Candida tropicalis [13], at most 0.016 µg/mL; in the assay on Candida albicans [14] it was at most 0.032 µg/mL; in the assay on Clavispora lusitaniae [16], 0.03 µg/mL (≈ 0.0263 µM). The MIC is 0.5 µg/mL (≈ 0.438 µM) with Pichia kudriavzevii [17]; at most 0.032 µg/mL in the assay on Candida albicans [19]; at most 0.032 µg/mL against Candida albicans [20]; at most 0.016 µg/mL against Candida tropicalis [21]; 1 µg/mL (≈ 0.877 µM) in the assay on Candida albicans [23]; at most 0.032 µg/mL with Pichia kudriavzevii [24]. Moreover, the MIC came out at 0.5 µg/mL (≈ 0.438 µM) against Candida albicans [25]; 0.032 µg/mL (≈ 0.0281 µM) in the assay with Candida albicans [26]; 0.06 µg/mL (≈ 0.0526 µM) with Debaryomyces hansenii [29]; 2 µg/mL (≈ 1.75 µM) against Candida albicans [30]; 32 µg/mL (≈ 28.1 µM) in the assay on Candida albicans [31]; 0.03 µg/mL (≈ 0.0263 µM) in the assay on Debaryomyces hansenii [33]. Moreover, the MIC50 against Candida albicans [2] is 0.016 µg/mL (≈ 0.014 µM); in the assay with Clavispora lusitaniae [4], 0.06 µg/mL (≈ 0.0526 µM); against Pichia kudriavzevii [5], 0.03 µg/mL (≈ 0.0263 µM); against Nakaseomyces glabratus [6], 0.016 µg/mL (≈ 0.014 µM); in the assay on Pichia kudriavzevii [15], 0.03 µg/mL (≈ 0.0263 µM); in the assay on Clavispora lusitaniae [16] it was 0.03 µg/mL (≈ 0.0263 µM). Moreover, the MIC50 against Candida parapsilosis [18] worked out at 2 µg/mL (≈ 1.75 µM); against Nakaseomyces glabratus [22], 0.03 µg/mL (≈ 0.0263 µM); in the assay on Candida parapsilosis [27], 0.5 µg/mL (≈ 0.438 µM); in assay [28], 1 µg/mL (≈ 0.877 µM); in the assay with Debaryomyces hansenii [29], 0.06 µg/mL (≈ 0.0526 µM); in the assay on Candida albicans [32], 0.016 µg/mL (≈ 0.014 µM). Further, the MIC50 in the assay with Debaryomyces hansenii [33] amounted to 0.03 µg/mL (≈ 0.0263 µM); in assay [34] it was 1 µg/mL (≈ 0.877 µM). Besides, the MIC90 against Candida albicans [2] was found to be 1 µg/mL (≈ 0.877 µM); against Pichia kudriavzevii [5], 0.12 µg/mL (≈ 0.105 µM); in the assay on Nakaseomyces glabratus [6], 0.016 µg/mL (≈ 0.014 µM); in the assay on Pichia kudriavzevii [15] it was 0.5 µg/mL (≈ 0.438 µM); with Candida parapsilosis [18], 8 µg/mL (≈ 7.02 µM); with Nakaseomyces glabratus [22], 0.12 µg/mL (≈ 0.105 µM). The MIC90 with Candida parapsilosis [27] was 4 µg/mL (≈ 3.51 µM); in assay [28] it was 1 µg/mL (≈ 0.877 µM); in the assay with Candida albicans [32] it was 0.25 µg/mL (≈ 0.219 µM); in assay [34] it was 8 µg/mL (≈ 7.02 µM).
As for `CC[C@H](C)C[C@H](C)CCCCCCCCC(=O)N[C@H]1C[C@@H](O)[C@@H](NCCN)NC(=O)[C@@H]2[C@@H](O)CCN2C(=O)[C@H]([C@H](O)CCN)NC(=O)[C@H]([C@H](O)[C@@H](O)c2ccc(O)cc2)NC(=O)[C@@H]2C[C@@H](O)CN2C(=O)[C@H]([C@@H](C)O)NC1=O` [CASPOFUNGIN], the MIC was found to be 4 µg/mL (≈ 3.66 µM) in the assay with Candida albicans [3]; 4 µg/mL (≈ 3.66 µM) against Candida albicans [7]; 8 µg/mL (≈ 7.32 µM) against Candida albicans [8]; 8 µg/mL (≈ 7.32 µM) against Candida albicans [9]; 2 µg/mL (≈ 1.83 µM) in the assay on Candida albicans [11]; 4 µg/mL (≈ 3.66 µM) in the assay with Pichia kudriavzevii [17]. Also, the minimum inhibitory concentration (MIC) against Candida albicans [20] was at most 0.032 µg/mL; against Candida albicans [23] it was 8 µg/mL (≈ 7.32 µM); against Candida albicans [26] it was 0.25 µg/mL (≈ 0.229 µM).
Turning to `CCCCCOc1ccc(-c2cc(-c3ccc(C(=O)N[C@H]4C[C@@H](O)[C@@H](O)NC(=O)[C@@H]5[C@@H](O)[C@@H](C)CN5C(=O)[C@H]([C@H](O)CC(N)=O)NC(=O)[C@H]([C@H](O)[C@@H](O)c5ccc(O)c(OS(=O)(=O)O)c5)NC(=O)[C@@H]5C[C@@H](O)CN5C(=O)[C@H]([C@@H](C)O)NC4=O)cc3)no2)cc1` [MICAFUNGIN] (X1-[Orn(4R-OH,5R-OH)]T[Hyp][hTyr(3S-OH,4S-OH,3'-OSO3H)][Gln(3R-OH)][Pro(3S-OH,4S-Me)]; lactam 1-C), the minimal inhibitory concentration (MIC) worked out at 0.25 µg/mL (≈ 0.197 µM) against Candida albicans [3]; 0.25 µg/mL (≈ 0.197 µM) against Candida albicans [7]; 1 µg/mL (≈ 0.787 µM) in the assay on Candida albicans [8]; 1 µg/mL (≈ 0.787 µM) with Candida albicans [9]; 0.25 µg/mL (≈ 0.197 µM) in the assay with Candida albicans [11]; 1 µg/mL (≈ 0.787 µM) in the assay on Pichia kudriavzevii [17]. In addition, the MIC against Candida albicans [20] is at most 0.032 µg/mL; in the assay on Candida albicans [23], 1 µg/mL (≈ 0.787 µM); with Candida albicans [26], at most 0.032 µg/mL.

The MIC is the lowest concentration found to suppress growth. A high value points to a less susceptible organism. In general, MIC50 refers to the lowest concentration that inhibits either 50% of growth or 50% of the strains tested, depending on the study. High values mean lower susceptibility, low ones higher susceptibility. Usually MIC90 stands for the lowest concentration that inhibits either 90% of growth or 90% of the strains tested, depending on the study.
